Article PMC2922960 (Bioorganic & medicinal chemistry letters, 2009)

Tests used:
[1] = biological target: T1, recombinant mammalian FTase (Homo sapiens, UniProt P49354+P49356); test: HPLC analysis of farnesylated peptide product formation; format: biochemical; details: 3 μM peptide, 9 μM FPP, 0.05 μM FTase; for HPLC: formation of farnesylated peptide product: after 60 min incubation with FTase
FTase [2] = biological target: FTase (Homo sapiens, UniProt P49354+P49356); test: steady-state kinetic assay; format: biochemical, mammalian; details: saturating FPP (10 μM), 0.2-10 μM dansylated peptide, 20-100 nM FTase, 50 mM HEPPSO pH 7.8, 5 mM TCEP, 5 mM MgCl2, 25 °C; fluorescence λex 340 nm, λem 520 nm
[3] = biological target: T1, recombinant mammalian FTase; test: continuous spectrofluorimetric assay of FTase substrate activity; format: biochemical; details: from fluorescence screen and HPLC confirmation
FTase [4] = details: cited from earlier work

**Q.** With CAIL as the substance, how does the “HPLC: formation of farnesylated peptide product” value (“HPLC: formation” below) [1] read?
**A.** +++

**Q.** And the kcat/KM (FTase [2])?
**A.** 27000 ± 2000 M⁻¹ s⁻¹

**Q.** Which “HPLC: formation” value [1] does the source give for CALL here?
**A.** + (25% to 50% conversion to product)

**Q.** For CAYL, which “HPLC: formation” value [1] is on record?
**A.** − −

**Q.** With CCLL as the substance, how does the “HPLC: formation” value [1] read?
**A.** + (25% to 50% conversion to product)

**Q.** Which “HPLC: formation” value [1] does the source give for CCSL here?
**A.** − −

**Q.** Which “HPLC: formation” value [1] does the source give for CCVL here?
**A.** +++

**Q.** What about the kcat/KM (FTase [2]) of the same substance?
**A.** 7000 ± 1000 M⁻¹ s⁻¹

**Q.** For CEKL, which “HPLC: formation” value [1] is on record?
**A.** − −

**Q.** Which “HPLC: formation” value [1] does the source give for CGCL here?
**A.** − −

**Q.** With CGGL as the substance, how does the “HPLC: formation” value [1] read?
**A.** − −

**Q.** For CGQL, which “HPLC: formation” value [1] is on record?
**A.** − −

**Q.** With CHAL as the substance, how does the “HPLC: formation” value [1] read?
**A.** − −

**Q.** With CHPL as the substance, how does the “HPLC: formation” value [1] read?
**A.** − −

**Q.** With CIIL as the substance, how does the “HPLC: formation” value [1] read?
**A.** +++

**Q.** What about the kcat/KM (FTase [2]) of the same substance?
**A.** 43000 ± 8000 M⁻¹ s⁻¹

**Q.** What does the source list for CILL?
**A.** HPLC: formation of farnesylated peptide product [1]: ++; kcat/KM (FTase [2]): 8000 ± 2000 M⁻¹ s⁻¹

**Q.** What does the source list for CKVL?
**A.** FTase substrate ability (category in words) [3]: relatively modest FTase substrates; HPLC: formation of farnesylated peptide product [1]: + (25% to 50% conversion to product)

**Q.** Which “HPLC: formation” value [1] does the source give for CLGL here?
**A.** − −

**Q.** What does the source list for CLIL?
**A.** FTase substrate ability (category in words) [3]: confirmed substrates; HPLC: formation of farnesylated peptide product [1]: ++

**Q.** For CLLL, which “FTase substrate ability (category in words)” value (from here on “FTase substrate ability”) [3] is on record?
**A.** poor FTase substrate

**Q.** And the “HPLC: formation” value [1]?
**A.** + (25% to 50% conversion to product)

**Q.** Which “HPLC: formation” value [1] does the source give for CLQL here?
**A.** − (less than 25% conversion)

**Q.** For CLVL, which “HPLC: formation” value [1] is on record?
**A.** + (25% to 50% conversion to product)

**Q.** For CMEL, which “HPLC: formation” value [1] is on record?
**A.** − −

**Q.** Which “HPLC: formation” value [1] does the source give for CNIL here?
**A.** ++

**Q.** And the kcat/KM (FTase [2])?
**A.** 12000 ± 900 M⁻¹ s⁻¹

**Q.** With CNPL as the substance, how does the “HPLC: formation” value [1] read?
**A.** − −

**Q.** Which results are given for CPIL?
**A.** FTase substrate ability (category in words) [3]: confirmed substrates; HPLC: formation of farnesylated peptide product [1]: + (25% to 50% conversion to product)

**Q.** Which “HPLC: formation” value [1] does the source give for CQLL here?
**A.** − (less than 25% conversion)

**Q.** For CQNL, which “HPLC: formation” value [1] is on record?
**A.** − −

**Q.** With CRLL as the substance, how does the “HPLC: formation” value [1] read?
**A.** + (25% to 50% conversion to product)

**Q.** For CSFL, which “HPLC: formation” value [1] is on record?
**A.** − −

**Q.** Which “HPLC: formation” value [1] does the source give for CSIL here?
**A.** +++

**Q.** And the kcat/KM (FTase [2])?
**A.** 5000 ± 1000 M⁻¹ s⁻¹

**Q.** For CSLL, which “HPLC: formation” value [1] is on record?
**A.** − (less than 25% conversion)

**Q.** For CSQL, which “HPLC: formation” value [1] is on record?
**A.** − −

**Q.** For CSTL, which “HPLC: formation” value [1] is on record?
**A.** − −

**Q.** Which “HPLC: formation” value [1] does the source give for CSVL here?
**A.** + (25% to 50% conversion to product)

**Q.** With CTAL as the substance, how does the “HPLC: formation” value [1] read?
**A.** − −

**Q.** Which “HPLC: formation” value [1] does the source give for CTIL here?
**A.** ++

**Q.** And the kcat/KM (FTase [2])?
**A.** 33000 ± 7000 M⁻¹ s⁻¹

**Q.** For CTLL, which “HPLC: formation” value [1] is on record?
**A.** + (25% to 50% conversion to product)

**Q.** Which “HPLC: formation” value [1] does the source give for CVGL here?
**A.** − −

**Q.** For CVLL, which “FTase substrate ability” value [3] is on record?
**A.** relatively modest FTase substrates

**Q.** And the “HPLC: formation” value [1]?
**A.** + (25% to 50% conversion to product)

**Q.** Which results are given for DnGCCIL?
**A.** FTase substrate ability (category in words) [3]: efficient FTase substrate; HPLC: formation of farnesylated peptide product [1]: +++; kcat/KM (FTase [2]): 23000 ± 3000 M⁻¹ s⁻¹

**Q.** For DnGCLML, which “FTase substrate ability” value [3] is on record?
**A.** good FTase substrate

**Q.** And the “HPLC: formation” value [1]?
**A.** ++

**Q.** What about the kcat/KM (FTase [2]) of the same substance?
**A.** 8100 ± 500 M⁻¹ s⁻¹

**Q.** For DnGCVIL, which “HPLC: formation” value [1] is on record?
**A.** +++

**Q.** What about the kcat/KM (FTase [2]) of the same substance?
**A.** 47000 ± 8000 M⁻¹ s⁻¹

**Q.** With DnGCVLS [reference compound] as the substance, how does the “turnover to farnesylated product” value ([1]; after 15 minutes) read?
**A.** complete turnover

**Q.** Which “FTase substrate activity under single turnover conditions” value (FTase [4]; single turnover conditions) does the source give for DnTKCVIL here?
**A.** FTase substrate

**Q.** And the “FTase turnover under steady-state conditions” value (FTase [4]; steady-state conditions)?
**A.** did not exhibit efficient turnover
